The source of these data is ChEMBL document CHEMBL5050860, “Substrate selective hsd17b13 inhibitors and uses thereof” (2021).

SMILES strings stand for the structures.

Usually Ki stands for a measure of affinity in units of concentration, obtained from inhibition or displacement. A high value points to weaker binding.

For test [1], the species on record is Homo sapiens. Kind of test: Ratio of Ki for inhibition of His-tagged HSD17B13 (unknown origin) using LTB3 as substrate to Ki for His-tagged HSD17B13 (unknown origin) using estradiol as substrate.
Test [2] is described as follows: Inhibition of His-tagged HSD17B13 (unknown origin) using LTB3 as substrate incubated for 1 hr and measured after 1 hr by fluorescence based assay. Set-up: species or system Homo sapiens.
Test [3] can be described thus: Inhibition of His-tagged HSD17B13 (unknown origin) using estradiol as substrate incubated for 2 hrs and measured by LC-MS/MS analysis. Set-up: species or system Homo sapiens.

As for `Cc1cc(-c2ccc(-c3cccc(O)c3)s2)ccc1O`, the Ratio Ki in test [1] came to 0.14. Also, the figures for the Ki in test [2] and in test [3] were 1.07 µM and 7.58 µM, respectively.

On to `Oc1cccc(-c2nccc3cc(O)ccc23)c1`, for which the Ratio Ki in test [1] was more than 3.5. Further, the values for the Ki in test [2] and in test [3] were more than 30 µM and 8.55 µM, respectively.

In the case of `O=C1c2ccc(O)cc2C(=O)c2ccc(O)cc21` [ANTHRAFLAVICACID], in test [1], the Ratio Ki came out at 8.8. The Ki in test [2] was 2.81 µM; in test [3], 0.32 µM.

In the case of `CCOC(=O)c1cccc(-n2c(-c3ccncc3)nc3cc(OC)ccc32)c1`, the Ratio Ki in test [1] is less than 0.091. In addition, the Ki in test [2] is 2.72 µM; in test [3] it was more than 30 µM.
